Legend:
Human ACC2 = target: T1, Human ACC2 (Homo sapiens, UniProt O00763); assay: In vitro enzymatic ACC activity assay (malachite green), ACC2; type: biochemical; settings: recombinant His-tagged enzyme, absorbance at 620 nm
T1 construct: made in house; host or cells: SF-9 insect cells (baculovirus, pFAST-BacHTa)
Method: (§1) Provided in Example A is an in vitro enzymatic ACC activity assay for activity against ACC. The binding affinity of the test compound to ACC1 or ACC2 is determined by the changes in absorbance (at 620 nm); […]. It should be noted that a variety of other expression systems and hosts are also suitable for the expression of ACC, as would be readily appreciated by one of skill in the art.
Human ACC2 cDNA except coding region for mitochondria localization sequence was amplified from human skeletal muscle cDNA by polymerase chain reaction using primers; 5′[…]3′ (SEQ ID NO: 3) and 5′[…]3′ (SEQ ID NO: 4). The amplified DNA fragment was digested by SalI and AflII, and cloned into pFAST-BacHTa (Invitrogen). Preparation of recombinant vaculovirus, infection of the virus to SF-9 cells and purification of recombinant ACC2 protein with 6×His-tag at the N-terminal were performed in the same method as described above.
(§2) Malachite green solution was prepared by mixing 100 mL of solution A (0.12% malachite green in 5NH2SO4), 25 mL of solution B (7.5% ammonium molybdate) and 2 mL of solution C (11% TWEEN-20).
(§3) ACC1 was diluted to 8 μg/mL in reaction buffer (50 mM HEPES pH7.5, 10 mM MgCl2, 10 mM tripotassium citrate, 2 mM DTT, 0.75 mg/mL fatty acid free BSA) and 10 μL diluted enzyme solution was pored into each well of 384-well clear bottom plate. Test compound was diluted in the reaction buffer and 5 μL of the compound solution was added into each well, and the mixture was incubated at 30° C. for 60 minutes. Reaction was initiated by addition of 5 μL substrate solution (50 mM KHCO3, 200 μM ATP, 200 μM acetyl-CoA). After incubation at 30° C. for 20 minutes, reaction was terminated by addition of 5 μL malachite green solution and absorbance at 620 nm was measured.
ACC2 was diluted to 6.4 μg/mL in reaction buffer, and the activity was measured by the same method as described for ACC1.
(§4) Percent activity at each concentration of compound was calculated from the following equation: […]
(§5) Data were subjected to nonlinear regression analysis using GraphPad Prism Software (GraphPad Software Inc.) to obtain IC50 values.

Human ACC1 = target: T2, Human ACC1 (Homo sapiens, UniProt Q13085); assay: In vitro enzymatic ACC activity assay (malachite green), ACC1; type: biochemical; settings: recombinant His-tagged enzyme, absorbance at 620 nm
T2 construct: made in house; host or cells: SF-9 insect cells (baculovirus, pFAST-BacHTc)
Method: as §1
Human ACC1 cDNA was amplified from human liver cDNA by polymerase chain reaction using primers; 5′[…]3′ (SEQ ID NO: 1) and 5′[…]3′ (SEQ ID NO: 2). The amplified DNA fragment was digested by restriction enzyme SalI and NotI, and cloned into pFAST-BacHTc (Invitrogen). This plasmid DNA was used for preparation of recombinant vaculovirus with BAC-TO-BAC Baculovirus Expression System (Invitrogen).
SF-9 cells were infected with the vaculovirus and cultured at 27° C. for 3 days. Harvested cells were homogenized in buffer A (25 mM HEPES (pH7.5), 130 mM NaCl, 1 mM EDTA, 25 mM sodium glycerophosphate, 1 mM sodium orthovanadate, 10% glycerol, complete protease inhibitor), and subjected to ultracentrifuge at 185700×g for 50 min at 4° C. ACC1 protein with 6×His-tag at the N-terminal was purified from the supernatant using Ni-NTA Super Flow Gel (QIAGEN). Eluted protein was dialysed against buffer B (50 mM HEPES (pH 7.5), 300 mM NaCl, 10 mM MgCl2, 10 mM tripotassium citrate, 2 mM dithiothreitol) and concentrated using Vivaspin20 ultrafiltration tube (Sartorius).
as §2, §3, §4, §5

T1 sequence (O00763 117-2458 limits assumed): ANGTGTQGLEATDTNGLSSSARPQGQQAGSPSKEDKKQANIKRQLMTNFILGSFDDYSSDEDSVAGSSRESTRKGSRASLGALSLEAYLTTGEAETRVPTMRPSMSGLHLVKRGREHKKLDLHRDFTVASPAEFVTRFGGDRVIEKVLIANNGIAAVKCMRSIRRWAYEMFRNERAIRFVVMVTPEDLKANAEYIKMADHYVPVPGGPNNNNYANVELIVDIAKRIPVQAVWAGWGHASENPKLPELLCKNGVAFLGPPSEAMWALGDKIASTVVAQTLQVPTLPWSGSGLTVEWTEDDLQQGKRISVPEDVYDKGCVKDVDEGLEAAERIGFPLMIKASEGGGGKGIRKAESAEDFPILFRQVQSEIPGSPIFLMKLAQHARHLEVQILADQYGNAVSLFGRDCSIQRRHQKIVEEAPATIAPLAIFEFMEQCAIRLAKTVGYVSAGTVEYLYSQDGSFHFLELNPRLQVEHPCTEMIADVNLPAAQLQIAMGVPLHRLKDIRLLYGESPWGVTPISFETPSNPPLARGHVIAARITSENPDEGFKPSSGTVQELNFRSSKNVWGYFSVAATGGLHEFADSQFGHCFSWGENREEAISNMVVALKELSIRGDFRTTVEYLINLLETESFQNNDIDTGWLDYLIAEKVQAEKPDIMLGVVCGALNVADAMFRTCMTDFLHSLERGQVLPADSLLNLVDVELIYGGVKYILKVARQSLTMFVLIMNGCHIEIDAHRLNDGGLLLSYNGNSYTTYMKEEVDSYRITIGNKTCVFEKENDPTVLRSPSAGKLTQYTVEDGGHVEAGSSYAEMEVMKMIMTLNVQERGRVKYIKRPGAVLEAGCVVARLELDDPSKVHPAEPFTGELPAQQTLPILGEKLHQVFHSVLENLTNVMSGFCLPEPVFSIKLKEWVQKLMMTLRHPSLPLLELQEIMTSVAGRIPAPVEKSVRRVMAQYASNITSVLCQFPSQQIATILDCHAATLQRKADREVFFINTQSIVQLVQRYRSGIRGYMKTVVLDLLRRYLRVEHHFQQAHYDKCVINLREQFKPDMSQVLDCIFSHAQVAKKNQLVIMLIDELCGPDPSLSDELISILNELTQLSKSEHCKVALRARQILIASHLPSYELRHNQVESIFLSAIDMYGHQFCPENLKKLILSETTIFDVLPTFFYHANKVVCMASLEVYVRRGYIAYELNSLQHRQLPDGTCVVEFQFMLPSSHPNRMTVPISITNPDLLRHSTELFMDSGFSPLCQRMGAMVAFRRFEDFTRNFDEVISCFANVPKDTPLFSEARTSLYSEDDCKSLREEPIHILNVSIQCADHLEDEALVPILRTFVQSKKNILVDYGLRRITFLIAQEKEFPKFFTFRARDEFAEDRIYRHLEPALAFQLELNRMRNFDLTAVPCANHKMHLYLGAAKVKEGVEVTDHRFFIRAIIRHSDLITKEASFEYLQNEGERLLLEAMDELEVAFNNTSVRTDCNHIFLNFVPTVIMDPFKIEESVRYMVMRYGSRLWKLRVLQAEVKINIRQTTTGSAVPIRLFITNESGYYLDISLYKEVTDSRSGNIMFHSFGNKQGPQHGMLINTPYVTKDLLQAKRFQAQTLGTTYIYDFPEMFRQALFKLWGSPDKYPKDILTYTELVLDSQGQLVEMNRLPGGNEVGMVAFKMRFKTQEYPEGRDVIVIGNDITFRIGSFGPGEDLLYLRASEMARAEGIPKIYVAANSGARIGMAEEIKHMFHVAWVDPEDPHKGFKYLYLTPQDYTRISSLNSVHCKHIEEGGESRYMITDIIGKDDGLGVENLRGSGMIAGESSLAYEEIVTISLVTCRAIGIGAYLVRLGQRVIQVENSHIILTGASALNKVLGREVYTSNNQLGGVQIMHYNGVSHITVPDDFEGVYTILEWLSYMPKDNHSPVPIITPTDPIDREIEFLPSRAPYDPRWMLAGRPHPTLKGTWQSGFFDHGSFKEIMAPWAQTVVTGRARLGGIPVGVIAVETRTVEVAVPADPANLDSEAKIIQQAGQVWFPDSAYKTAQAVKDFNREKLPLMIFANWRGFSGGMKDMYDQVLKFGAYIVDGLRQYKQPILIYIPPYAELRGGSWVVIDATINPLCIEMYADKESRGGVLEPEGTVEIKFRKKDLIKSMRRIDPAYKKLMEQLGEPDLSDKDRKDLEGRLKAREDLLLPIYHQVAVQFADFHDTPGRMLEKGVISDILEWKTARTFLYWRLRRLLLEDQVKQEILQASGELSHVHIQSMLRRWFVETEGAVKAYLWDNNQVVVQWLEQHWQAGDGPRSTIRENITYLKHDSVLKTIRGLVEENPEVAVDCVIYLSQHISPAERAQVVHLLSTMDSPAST

SMILES	IC50 (Human ACC2) [µM]	IC50 (Human ACC1) [µM]
CCNC(=O)Nc1sc2ccccc2c1C(=O)N1CCN(S(=O)(=O)c2ccc(S(C)(=O)=O)cc2)CC1 [Example 29, ethyl-3-(3-(4-(4-(methylsulfonyl)phenylsulfonyl)piperazine-1-carbonyl)benzo[b]thiophen-2-yl)urea]	5 to 50	> 50
CCNC(=O)Nc1sc2ccccc2c1C(=O)N1CCN(S(=O)(=O)c2ccc3c(c2)NC(=O)C3)CC1 [Example 30, ethyl-3-(3-(4-(2-oxoindolin-6-ylsulfonyl)piperazine-1-carbonyl)benzo[b]thiophen-2-yl)urea]	< 5	5 to 50
CCNC(=O)Nc1sc2ccccc2c1C(=O)N1CCN(S(=O)(=O)c2ccc3[nH]c(=O)[nH]c3c2)CC1 [Example 31, ethyl-3-(3-(4-(2-oxo-2,3-dihydro-1H-benzo[d]imidazol-5-ylsulfonyl)piperazine-1-carbonyl)benzo[b]thiophen-2-yl)urea]	< 5	< 5
CCNC(=O)Nc1sc2ccccc2c1C(=O)N1CCN(S(=O)(=O)c2ccc3oc(=O)[nH]c3c2)CC1 [Example 32, ethyl-3-(3-(4-(2-oxo-2,3-dihydrobenzo[d]oxazol-5-ylsulfonyl)piperazine-1-carbonyl)benzo[b]thiophen-2-yl)urea]	5 to 50	> 50
CCNC(=O)Nc1sc2ccccc2c1C(=O)N1CCN(S(=O)(=O)CCC(=O)N2CCOCC2)CC1 [Example 36, ethyl-3-(3-(4-(3-morpholino-3-oxopropylsulfonyl)piperazine-1-carbonyl)benzo[b]thiophen-2-yl)urea]	5 to 50	5 to 50
CCNC(=O)Nc1sc2ccccc2c1C(=O)N1CCC(S(=O)(=O)c2cccc(OC)c2)CC1 [Example 37, ethyl-3-(3-(4-(3-methoxyphenylsulfonyl)piperidine-1-carbonyl)benzo[b]thiophen-2-yl)urea]	< 5	> 50
CCNC(=O)Nc1sc2ccccc2c1C(=O)N1CCC(S(=O)(=O)c2ccc3c(c2)OCO3)CC1 [Example 38, 1-(3-(4-(benzo[d][1,3]dioxol-5-ylsulfonyl)piperidine-1-carbonyl)benzo[b]thiophen-2-yl)-3-ethylurea]	> 50	> 50
CCNC(=O)Nc1sc2ccccc2c1C(=O)N1CCC(Sc2cccc(OC)c2)CC1 [Example 39, ethyl-3-(3-(4-(3-methoxyphenylthio)piperidine-1-carbonyl)benzo[b]thiophen-2-yl)urea]	< 5	< 5
CCNC(=O)Nc1sc2ccccc2c1C(=O)N1CCC(Sc2cccc(OC(F)(F)F)c2)CC1 [Example 40, ethyl-3-(3-(4-(3-(trifluoromethoxy)phenylthio)piperidine-1-carbonyl)benzo[b]thiophen-2-yl)urea]	5 to 50	> 50
CCNC(=O)Nc1sc2ccccc2c1C(=O)N1CCC([S+]([O-])c2cccc(OC)c2)CC1 (stereo not shown) [Example 41, ethyl-3-(3-(4-(3-methoxyphenylsulfinyl)piperidine-1-carbonyl)benzo[b]thiophen-2-yl)urea]	5 to 50	5 to 50
CCNC(=O)Nc1sc2ccccc2c1C(=O)N1CCC([S+]([O-])c2cccc(OC(F)(F)F)c2)CC1 (stereo not shown) [Example 42, ethyl-3-(3-(4-(3-(trifluoromethoxy)phenylsulfinyl)piperidine-1-carbonyl)benzo[b]thiophen-2-yl)urea]	5 to 50	> 50

The next lines start with the values.

IC50 (Human ACC2) [µM]	IC50 (Human ACC1) [µM]	SMILES
5 to 50	5 to 50	CCNC(=O)Nc1sc2ccccc2c1C(=O)N1CCN(S(=O)(=O)CCC(=O)OCC)CC1 [Example 25, Ethyl 3-(4-(2-(3-ethylureido)benzo[b]thiophene-3-carbonyl)piperazin-1-ylsulfonyl)propanoate]
5 to 50	5 to 50	CCNC(=O)Nc1sc2ccccc2c1C(=O)N1CCN(S(=O)(=O)CC(C)C)CC1 [Example 26, ethyl-3-(3-(4-(isobutylsulfonyl)piperazine-1-carbonyl)benzo[b]thiophen-2-yl)urea]
5 to 50	> 50	CCNC(=O)Nc1sc2ccccc2c1C(=O)N1CCN(S(=O)(=O)CCC(F)(F)F)CC1 [Example 27, ethyl-3-(3-(4-(3,3,3-trifluoropropylsulfonyl)piperazine-1-carbonyl)benzo[b]thiophen-2-yl)urea]
> 50	> 50	CCNC(=O)Nc1sc2ccccc2c1C(=O)N1CCN(S(C)(=O)=O)CC1 [Example 28, ethyl-3-(3-(4-(methylsulfonyl)piperazine-1-carbonyl)benzo[b]thiophen-2-yl)urea]
5 to 50	5 to 50	CCNC(=O)Nc1sc2ccccc2c1C(=O)N1CCN(S(=O)(=O)CCC(=O)N(CC)CC)CC1 [Example 34, N,N-diethyl-3-(4-(2-(3-ethylureido)benzo[b]thiophene-3-carbonyl)piperazin-1-ylsulfonyl)propanamide]
5 to 50	5 to 50	CCNC(=O)Nc1sc2ccccc2c1C(=O)N1CCN(S(=O)(=O)CCC(=O)N2CCCC2)CC1 [Example 35, ethyl-3-(3-(4-(3-oxo-3-(pyrrolidin-1-yl)propylsulfonyl)piperazine-1-carbonyl)benzo[b]thiophen-2-yl)urea]

From US20090005375A1, “ACETYL COENZYME A CARBOXYLASE INHIBITORS” (priority 2007, published 2009)
